What was measured:
SK-Mel-2 = test: Colony formation assay, SK-Mel-2; type: cell-based, human; details: 5 μM
Experimental: (§1) Cell survival was evaluated using a standard colony-forming assay. In total, 1×10^5 cells/mL were incubated with COH-SR4 (1.5 μM or 5 μM) or elesclomol (5 μM) for 24 h, and aliquots of 50 or 100 μL were added to 60 mm size petri dishes, containing 4 mL culture medium. After 7 or 10 days, adherent colonies were fixed, stained with 0.5% methylene blue for 30 min and colonies were counted using the Innotech Alpha Imager HP (91).

[1] = test system: B16-F0 and A2058 melanoma cells; test: TUNEL apoptosis assay, melanoma; type: cell-based; details: 24 h
Experimental: For TUNEL assay, 1×10^5 cells were grown on the cover slips for ˜12 h followed by treatment with COH-SR4 (5 μM or 10 μM) or elesclomol (5 μM) for 24 h. Apoptosis was determined by the labeling of DNA fragments with terminal deoxynucleotidyl-transferase dUTP nick-end labeling (TUNEL) assay using Promega fluorescence apoptosis detection system, and examined using Zeiss LSM 510 META laser scanning fluorescence microscope with filters 520 and 620 nm according to the protocol described previously (91). Photographs taken at identical exposure at ×400 magnification are presented.

[2] = test system: HAVSMC, NHDFs, melanocytes; test: MTT assay, normal cells; type: cell-based, human; details: 24 h and 48 h
Experimental: Cell density measurements were performed using a hemocytometer to count reproductive cells resistant to staining with trypan blue. Approximately 20,000 cells were plated into each well of 96-well flat-bottomed micro-titer plates. After 12 h or 24 h incubation at 37° C., medium containing either COH-SR4 (ranging 0-200 μM) or elesclomol (ranging 0-20 μM) were added to the cells. After 24 h, 48 h or 96 h incubation, 20 μL of 5 mg/mL MTT were introduced to each well and incubated for 2 h. The plates were centrifuged and medium was decanted. Cells were subsequently dissolved in 100 μl DMSO with gentle shaking for 2 h at room temperature, followed by measurement of OD570 (91).

[3] = test system: CDK2, CDK4, cyclin A, cyclin B1, cyclin E1, p27; test: Cell cycle regulator proteins in H358 and H520, Western-blot; type: cell-based, human; details: 24 h
Experimental: Cell or tissue proteins were extracted with cell lysis buffer (Cell Signaling Technology) and protein concentration was determined using the DC Protein Assay kit (Bio-Rad, Hercules, Calif., USA). Equal amount of proteins (˜40 μg) were loaded onto 4-15% Criterion TGX gels (Bio-Rad, Hercules, Calif.), resolved by SDS-PAGE electrophoresis, and then transferred onto nitrocellulose membranes for immunoblotting. Membranes were blocked with 5% skimmed milk in Tris-buffered saline containing 0.05% Tween 20 before incubation overnight at 4° C. with desired primary antibodies. Immuno-reactive proteins were visualized by peroxidase-labeled secondary antibodies and ECL system (Western Lightning Chemiluminescence Reagent, Perkin-Elmer, Mass., USA). Equal loading of proteins was confirmed by stripping and re-probing the membranes with either β-actin or GAPDH antibodies. Band intensities were quantified using a densitometer (Quantity One, Bio-Rad, Hercules, Calif.).
In the context of the elevation of GSTs in lung cancer, the impact of COH-SR4 on the catalytic activity of GSTs towards 1-chloro 2,4-dinitro benzene (CDNB), a model substrate used for GST activity was analyzed. GST activity towards 1-chloro 2,4-dinitro benzene (CDNB) and its inhibition by COH-SR4 was performed in 28000×g crude supernatant prepared from H1417, H1618, H520 and H358 cells. […]

H1417 = test: Colony formation assay, H1417; type: cell-based, human; details: 1.5 μM
Experimental: as §1
The effect of COH-SR4 was first examined in a NCI panel of cancer cell lines, the results of which indicated good activity of COH-SR4 towards lung cancer (FIG. 78A). […] Values are presented as mean±SD from two separate determinations with eight replicates each (n=16) (FIG. 78B). The COH-SR4 treatment exerted a significant inhibitory effect on the survival of lung cancer cells [IC50: H1417 cells-1.2±0.2 μM, H1618 cells-1.5±0.2 μM, H358 cells-2.1±0.2 μM and H520 cells-2.4±0.3 μM]. […] Following initial screening for the anticancer activity of COH-SR4, the effect of COH-SR4 on clonogenic potential was studied. Standard colony-forming assay was performed and the colonies were counted using Innotech Alpha Imager HP. […] The effect of COH-SR4 on induction of apoptosis was further investigated. […] TUNEL assay was performed using Promega fluorescence detection kit and examined using Zeiss LSM 510 META laser-scanning fluorescence microscope with filters 520 and 620 nm. […]

HUVEC cells = test: HUVEC cytotoxicity; type: cell-based; details: 48 hours, up to 10 μM
Experimental: HUVEC were treated with COH-SR4 at a concentration from 0.1˜100 μM for 48 hours.

Question: `O=C(Nc1cc(Cl)cc(Cl)c1)Nc1cc(Cl)cc(Cl)c1` [COH-SR4, 1,3-bis(3,5-dichlorophenyl) urea] was tested. Which colony formation (SK-Mel-2) did it give?
Answer: Its colony formation is 48±6%.

Question: What about the “apoptosis (DNA fragmentation, TUNEL)” value ([1]; 5 μM) of the same compound?
Answer: Its value is “induced apoptosis”.

Question: What about the “apoptosis (DNA fragmentation, TUNEL)” value ([1]; 10 μM) of the same compound?
Answer: The value was “induced apoptosis”.

Question: And the “cytotoxicity in normal cells” value [2]?
Answer: Its value is “did not cause any significant cytotoxicity”.

Question: What about the “protein level of p27” value [3] of the same compound?
Answer: Its value is “up-regulated”.

Question: What about the “protein levels of CDK2, CDK4, cyclin A, cyclin B1 and cyclin E1” value [3] of the same compound?
Answer: The value was “decreased the protein levels of CDK2, CDK4, cyclin A, cyclin B1 and cyclin E1”.

Question: What about the colony formation (H1417) of the same compound?
Answer: Its colony formation is 39±8%.

Question: And the “cytotoxicity to HUVEC cells” value (HUVEC cells)?
Answer: Its value is “almost no cytotoxicity”.
